According to paper PMC3679022, “A Cancer Specific Cell-Penetrating Peptide, BR2, for the Efficient Delivery of an scFv into Cancer Cells” (PLoS ONE, 2013):

Assays:
[1] = tested on: normal cells (HaCat, BJ and NIH 3T3); assay: Flow cytometry of FITC-labeled peptide uptake, normal cells; format: cell-based, human, mouse; settings: FITC-labeled peptide 10 µM, 30 min, 37°C, trypsin 1 mg/ml 10 min before FACS, 10,000 events
Description: (§1) To evaluate the internalization of FITC-labeled peptides, HeLa cells were seeded onto 12-well plates at a density of 2×10^5 cells per well and incubated for 24 h. FITC-labeled peptides, at various concentrations ranging from […], were then incubated with the cells for 30 min at 37°C. To compare the cellular uptake of peptides, cancer and normal cells were treated with FITC-labeled peptides (each, 10 µM) and incubated for 30 min at 37°C. Following the incubation, cells were washed three times with ice-cold PBS to remove excess extracellular complexes. Next, the cells were treated with trypsin (1 mg/ml) for 10 min to remove any remaining peptides bound to the cell surface. After trypsinization, the cells were collected by centrifugation (1,000×g for 5 min), resuspended with 500 µl ice-cold 2% FBS/PBS containing propidium iodide (PI), and then immediately analyzed (10,000 events/sample) by fluorescence activated cell sorting (FACS).
(§2) For all of these experimental conditions, flow cytometry analyses were performed with live cells using a Becton Dickinson FACSCalibur flow cytometer (BD Biosciences, San Diego, CA). In each case, the fluorescence of 10,000 viable cells was acquired. Viable cells were gated based on a sideward and forward scatter. […] The statistical significance was evaluated by Student’s t-test at a 95% confidence interval. […]

HeLa cells = format: cell-based, human; settings: FACS
Description: as §1
To understand further the cell-penetrating mechanism of peptides, the effects of temperature and metabolic inhibitors were examined. To elucidate the temperature dependency, HeLa cells were incubated at 4°C for 30 min prior to the addition of the peptides. Next, cells were treated with FITC-labeled peptides (each, 5 µM) at 4°C for 30 min. For the energy-depletion study, HeLa cells were preincubated with sodium azide (NaN3, 10 mM) at 37°C for 1 h and then incubated with FITC-labeled peptides (each, 5 µM) at 37°C for 30 min.
To study the role of endocytosis in peptide uptake, cells were pretreated with several endocytosis inhibitors at 37°C for 1 h: (i) amiloride (5 mM), which is known to block macropinocytosis by inhibiting a sodium channel; (ii) nocodazole (100 ng/ml), which inhibits the clathrin-mediated pathway; and (iii) methyl-ß-cyclodextrin (MßCD, 5 mM), which inhibits lipid raft-mediated processes by depleting cholesterol from the plasma membrane. All inhibitors were purchased from Sigma (St. Louis, MO).
To examine the effects of negatively charged components on the cell surface for peptide internalization, HeLa cells were pretreated with gangliosides (monosialoganglioside GM3 from canine blood), heparin sulfate, or sialic acid (Neu5Ac, all from Sigma) (20 µg/ml) for 30 min. For the inhibition of ganglioside biosynthesis, cells were pretreated with D-threo-1-phenyl-2-hexadecanoyl amino-3-morpholino-1-propanol (PPMP, 5 µM) for 48 h.
For all of these experimental conditions, flow cytometry analyses were performed with live cells using a Becton Dickinson FACSCalibur flow cytometer (BD Biosciences, San Diego, CA). In each case, the fluorescence of 10,000 viable cells was acquired. Viable cells were gated based on a sideward and forward scatter. For data analysis, WinMDI software (Joe Trotter, Scripps Research Institute, La Jolla, CA) was used. The statistical significance was evaluated by Student’s t-test at a 95% confidence interval.
Figure 2 BR2 specifically penetrates cancer cell membranes in a concentration-dependent manner. (A) Analysis of the cell-penetrating efficiency of each peptide in different cell types by flow cytometry. FITC-labeled Tat, BR1 and BR2 peptides (10 µM) were added to different cell types: HeLa, HCT116 and B16/F10 cancer cells and HaCat, BJ and NIH 3T3 normal cells. After 30 min of incubation at 37°C, the FITC-positive cells were counted by flow cytometry. Values represent the percentage of fluorescence-positive cells in the total cell population. (B) Quantitative assessment of cell penetration of each peptide by flow cytometry. HeLa cells were incubated with FITC-labeled peptides at concentrations of 1, 2, 5, or 10 µM for 30 min at 37°C. Afterwards the cells were washed with cold PBS and harvested and cellular fluorescence was analyzed by flow cytometry. […] Prior to analysis, extracellular fluorescence of surface bound peptides was removed by a trypsin treatment (1 mg/ml for 10 min). […]

[2] = tested on: normal cells (HaCat, BJ and NIH 3T3); assay: Confocal laser scanning microscopy of FITC-labeled peptide uptake, normal cells; format: cell-based, human, mouse; settings: FITC-labeled peptide 5 µM, 30 min, 37°C, live unfixed cells
Description: To investigate the cell-penetrating ability and the intracellular distribution of the internalized peptides, live confocal microscopy was performed on three cancer lines (HeLa, HCT116 and B16/F10) and three normal cell lines (HaCat, BJ and NIH 3T3). Briefly, cells (2×10^5) were plated on a glass coverslip placed in a 6-well plate, grown overnight, and then incubated with FITC-labeled peptides (5 µM for each cell line) for 30 min. The cells were then rinsed three times with phosphate buffered saline (PBS, pH 7.4), and mounted on microscope slides with fluorescence mounting solution (Dako Corp, Carpinteria, CA). Colocalization of BR2 with lysosomes was observed by using LysoTracker Red DND-99 (Molecular Probe, Eugene, OR). To avoid the effects of fixation artifacts, involving both methanol and paraformaldehyde, cells were not fixed, [27]. The distribution of FITC-labeled peptides was analyzed using a confocal scanning laser Zeiss LSM 510 microscope (Jena, Germany) equipped with a 40× and 20× objective. Fluorophores were excited with an argon laser (488 nm) for FITC and a HeNe laser (543 nm) for LysoTracker Red.
(B,C) In vitro cytotoxicity of peptides.

[3] = tested on: cancer cells (HeLa, HCT116 and B16/F10); format: cell-based, human, mouse; settings: flow cytometry
Description: as §1, §2

## RAGLQFPVGRLLRRLLR [BR2]
[1]
  percentage of fluorescence-positive cells (cells that internalized peptide): 23–34%
HeLa cells; FITC-labeled peptide 5 µM, 30 min at 4°C after preincubation at 4°C
  decrease of cellular uptake at 4°C compared to 37°C: 88.5%
HeLa cells; MßCD 5 mM pretreatment 1 h 37°C, peptide 30 min 37°C, mean of three experiments
  inhibition of penetration by methyl-ß-cyclodextrin (MßCD): 44.6%
HeLa cells; NaN3 10 mM preincubation 1 h 37°C, then FITC-labeled peptide 5 µM 30 min 37°C
  reduction of uptake by ATP depletion (sodium azide): 67.7%
HeLa cells; PPMP 5 µM pretreatment 48 h
  effect of ganglioside synthesis inhibitor PPMP on peptide uptake: significantly reduced
HeLa cells; amiloride 5 mM pretreatment 1 h 37°C, peptide 30 min 37°C, mean of three experiments
  inhibition of cellular uptake by amiloride: 36.5%
HeLa cells; gangliosides (GM3) 20 µg/ml, 30 min
  effect of exogenous gangliosides on peptide penetration: partially inhibited
HeLa cells; heparin 20 µg/ml, 30 min
  effect of exogenous heparin on peptide uptake: almost no effect
HeLa cells; nocodazole 100 ng/ml pretreatment 1 h 37°C, peptide 30 min 37°C
  effect of nocodazole on peptide transduction: negligible effect
HeLa cells; sialic acid (Neu5Ac) 20 µg/ml, 30 min
  effect of exogenous sialic acids on peptide penetration: partially inhibited
[2]
  cellular uptake (confocal microscopy): very poorly internalized
[3]
  transduction efficiency into cancer cells versus normal cells: about 4 fold
